These results are taken from patent US6974798B2, “Treatment of balance impairments” (Genentech, Inc., priority 1995, dated 2005).

Data set [1] relates to vestibular ganglion neurons (VGNs). Briefly: Ototoxin-induced cell death of VGNs in culture. Format: cell-based, rat.
Experimental: The effects of trkB or trkC agonists to enhance neuronal survival was determined using VGNs in cell culture. VGN cell culture was prepared as follows. Vestibular ganglia were dissected from postnatal day 5 (P5) Wistar rats and were incubated in a mixture of 0.125% trypsin and 0.125% collagenase for 25 min at 37° C. The enzyme was inactivated with a mixture of 0.005% soybean trypsin inhibitor (Sigma) and 0.005% DNase (Worthington) before trituration with 0.05% DNase in Eagle's Basal Medium (“BME”). After the undissociated tissues were separated by filtering with a Nylon meshwork (33 μm in pore size), the dissociated cells were preplated on a 35 mm untreated tissue culture dish for 25 min to enrich the neuronal population. Under these experimental procedures, about 3-5% of the cell population were vestibular ganglion neurons (VGNs) as determined by immunocytochemistry with a monoclonal antibody (N52; Boehringer) against neurofilament (200 kd). The cell suspension was finally plated on polylysine (500 μg/ml)laminin (20 μg/ml) coated 16-well LabTek slides in 200 μl of serum-free medium (BME plus serum-free supplement (Sigma I-1884), 1% BSA, 2 mM glutamine, and 5 mg/ml glucose) containing no antibiotics. Cells were plated at a density of 100,000/well.
Cell counts and data analysis were performed as follows. After 2 days in culture, viable VGNs were identified by labeling with the neurofilament monoclonal antibody N52 and counted using a grid ocular reticule covering an area of 1 mm^2 under a Zeiss Axiophot microscope. For each culture, about 10 randomly selected fields were counted. In these experiments, cell counts were performed in the same way for control cultures. Data were collected from triplet cultures for each of the experimental groups. Data were then normalized as a percentage of the viable VGNs in the control cultures in each of the experiments.
The ability of trkB or trkC agonists to protect neurons from ototoxicity was determined using VGNs in cell culture. […] All human recombinant neurotrophins (Genentech, Inc.) were added to the cultures at the time of plating. […]
The next data set has as its system hair cells. The settings on record: Warchol et al., 1993, Lefebvre et al.; cited from earlier work.

On to gentamicin, for which the VGN death result in data set [1] (3 mgiml of gentamicin) is recorded as “a majority of VGNs died”. Also, the “inhibition of VGN survival by the ototoxin” value in data set [1] (added at plating at various concentrations, FIGS. 4 and 5) is on record as “dose-dependent inhibition of VGN survival”. The “concentrations at which induced VGN cell death was observed” value in data set [1] (present experiments) fell in the range of 1000 to 3000 µg/mL. Moreover, the “concentrations needed to destroy hair cells” value with hair cells is 500 to 1000 µg/mL.
